{"source": "paper PMC10223470", "about": "(Molecules, 2023)", "key": {"[1]": {"target": "T1, human dopamine D3 receptor (Homo sapiens, UniProt P35462)", "T1 construct": "expressed in transfected cells; host or cells: CHO-K1", "T1 sequence (P35462 whole entry)": "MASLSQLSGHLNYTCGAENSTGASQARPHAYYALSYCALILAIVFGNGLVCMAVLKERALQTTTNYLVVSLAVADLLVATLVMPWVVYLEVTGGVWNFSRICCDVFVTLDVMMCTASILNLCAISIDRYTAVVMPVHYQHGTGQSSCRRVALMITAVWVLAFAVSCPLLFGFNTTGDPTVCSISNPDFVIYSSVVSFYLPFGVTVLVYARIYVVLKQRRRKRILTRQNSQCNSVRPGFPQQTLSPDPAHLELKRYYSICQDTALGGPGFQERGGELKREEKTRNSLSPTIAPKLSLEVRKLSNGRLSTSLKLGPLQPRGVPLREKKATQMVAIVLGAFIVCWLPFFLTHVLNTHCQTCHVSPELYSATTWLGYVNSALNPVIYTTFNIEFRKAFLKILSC", "assay": "Competition radioligand binding at human D3 receptor ([3H]-Spiperone)", "conditions": "mean ± SEM of 2 independent experiments, read-out: huD3 % inh. at 10 µM", "description": "(§1) Competition radioligand binding assays were performed on membranes isolated from cell lines stably expressing the cloned human receptors, which were either in-house or commercially available. […] Assays (250 μL assay final volume) were carried out in 96-well polypropylene plates in duplicate. In short, the suspension of appropriate membrane protein was incubated in an assay buffer with the addition of the corresponding radioligand, in the presence or absence of a tested compound or reference compound. […] After the incubation, the content of the test plates was transferred to 96 well plates with glass fiber filter GF/B or GF/C, previously pretreated with polyethyleneimine (PEI), and rapidly filtered with the use of vacuum, followed by rapid washing with cold (4 °C) wash buffer. After that, the filter plates were dried at 60 °C for 1 h. Then, 30 μL of liquid scintillation cocktail (UniverSol-ES, MP Biomedicals, Solon, OH, USA) was added to each well of the filter plates, and the radioactivity was measured in a MicroBeta^2 microplate scintillation counter (PerkinElmer, Madrid, Spain).\n(§2) Competition binding curves were fitted to a one-site competition binding model (Fit Ki) with the use of Prism 7 software (GraphPad, San Diego, CA, USA). logKi (log of the equilibrium dissociation constant (Ki)) values were obtained after constraining the concentration of radioligand employed in the assay and its dissociation constant (KD) as determined in saturation radioligand binding assays."}, "mice [2]": {"system": "mice", "assay": "Forced swim test (FST)", "format": "in vivo", "conditions": "60 min before the test", "description": "The experiments were carried out on 6 weeks old naive Swiss male mice (Experimental Medicine Center (OMD), Lublin, Poland), weighing 28–30 g. The cages with mice were located in air-conditioned rooms maintaining the ambient temperature within the range of 23–25 °C. The animals were provided with a natural 12 h day/night cycle, replicating the day and night mode. Each testing group was represented by 8–10 animals, depending on the research schedule. All experiments were conducted according to the National Institute of Health Guidelines for the Care and Use of Laboratory Animals (8th edition) and to the European Community Council Directive for the Care and Use of Laboratory Animals of 22 September 2010 (2010/63/EU) and were approved by the Local Ethical Committee (number of ethical approval: 147/2018). Compound 17 (25, 50, 75 mg/kg) was suspended in 1% Tween 80 in saline solution and was administered intraperitoneally (i.p.) 60 min before the test. […] Imipramine hydrochloride (30 mg/kg, Sigma-Aldrich was administered intraperitoneally (i.p.) 60 min before the test. […] Sigma-Aldrich, USA) was given subcutaneously (s.c.). Prior to administration, the agent was dissolved in saline and injected 30 min before the test. Control animals received an (i.p.) or (s.c.) injection of a respective vehicle. All compounds were injected in a manner generally accepted in experimental pharmacology, in an amount of 10 mL/kg body weight. Forced Swim Test was carried out according to the method of Porsolt et al.. It is a standard behavioral test, called the resignation test, which is used to determine the effectiveness of antidepressant drugs in laboratory rodents. Each mouse was placed individually for 6 min into a glass cylinder (height 25 cm, diameter 10 cm) with 15 cm of water at 23–25 °C. After the first 2 min of the test, the total duration of immobility (in seconds) was measured. An animal was judged to be immobile when it ceased struggling and remained floating motionless and making only movements allowing it to keep the head just above the surface of the water."}, "mice [3]": {"system": "mice", "assay": "Amphetamine-induced hyperactivity in mice", "format": "in vivo", "conditions": "amphetamine 3 mg/kg s.c.; for effect on amphetamine-induced hyperactivity after 10 min / effect on amphetamine-induced hyperactivity after 30 min: p < 0.05 vs amphetamine group", "description": "(§3) The experiments were carried out on 6 weeks old naive Swiss male mice (Experimental Medicine Center (OMD), Lublin, Poland), weighing 28–30 g. The cages with mice were located in air-conditioned rooms maintaining the ambient temperature within the range of 23–25 °C. The animals were provided with a natural 12 h day/night cycle, replicating the day and night mode. Each testing group was represented by 8–10 animals, depending on the research schedule. All experiments were conducted according to the National Institute of Health Guidelines for the Care and Use of Laboratory Animals (8th edition) and to the European Community Council Directive for the Care and Use of Laboratory Animals of 22 September 2010 (2010/63/EU) and were approved by the Local Ethical Committee (number of ethical approval: 147/2018).\n(§4) Compound 17 (25, 50, 75 mg/kg) was suspended in 1% Tween 80 in saline solution and was administered intraperitoneally (i.p.) 60 min before the test. Diazepam (DZ, Relanium, Polfa, Poland) at a dose of 1 mg/kg was diluted in 0.9% saline containing 1% Tween 80 and was administered subcutaneously (s.c.), 60 min before the test. Imipramine hydrochloride (30 mg/kg, Sigma-Aldrich was administered intraperitoneally (i.p.) 60 min before the test. D-amphetamine sulfate (3 mg/kg; Sigma-Aldrich, USA) was given subcutaneously (s.c.). Prior to administration, the agent was dissolved in saline and injected 30 min before the test. Control animals received an (i.p.) or (s.c.) injection of a respective vehicle. All compounds were injected in a manner generally accepted in experimental pharmacology, in an amount of 10 mL/kg body weight.\n(§5) The measurement of the spontaneous locomotor activity was carried out using the OptoVarimex 4 Auto-Track device (Columbus Instruments, Columbus, OH, USA). Tested animals are kept in cages for 30 min. Their activity was recorded as interruptions of the light beams after 10 and 30 min of the test, and it was calculated automatically as a traveled distance in cm (±SEM). To determine whether compound 17 has an influence on amphetamine-induced hyperactivity, each mouse received 17 (25, 50 and 75 mg/kg; i.p.) and amphetamine (3 mg/kg; s.c.) 30 min after injection of 17 or vehicle and then spontaneous locomotor activity was measured."}, "human 5-HT2A receptor": {"target": "T2, human 5-HT2A receptor (Homo sapiens, UniProt P28223)", "T2 construct": "expressed in transfected cells; host or cells: CHO-K1", "T2 sequence (P28223 whole entry)": "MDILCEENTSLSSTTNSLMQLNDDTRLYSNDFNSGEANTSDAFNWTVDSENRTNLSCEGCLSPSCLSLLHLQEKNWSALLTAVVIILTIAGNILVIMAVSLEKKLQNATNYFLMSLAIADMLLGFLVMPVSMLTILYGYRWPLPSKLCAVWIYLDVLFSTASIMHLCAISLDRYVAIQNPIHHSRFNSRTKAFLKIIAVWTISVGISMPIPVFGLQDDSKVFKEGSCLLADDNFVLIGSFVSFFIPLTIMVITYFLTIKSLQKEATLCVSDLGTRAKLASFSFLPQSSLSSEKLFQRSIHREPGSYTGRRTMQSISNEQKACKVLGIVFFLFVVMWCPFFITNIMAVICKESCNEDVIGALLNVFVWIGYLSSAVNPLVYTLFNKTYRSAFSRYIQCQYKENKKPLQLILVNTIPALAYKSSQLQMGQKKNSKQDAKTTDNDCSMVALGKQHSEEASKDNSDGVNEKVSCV", "assay": "Competition radioligand binding at human 5-HT2A receptor ([3H]-Ketanserin)", "conditions": "mean ± SEM of 2 independent experiments, read-out: hu5-HT2A % inh. at 10 µM", "description": "as §1, §2"}, "mice [4]": {"system": "mice", "assay": "Spontaneous locomotor activity in mice", "format": "in vivo", "conditions": "for Distance Traveled after 10 min / Distance Traveled after 30 min: mean ± SEM, n=10", "description": "as §3, §4, §5"}, "human 5-HT7 receptor": {"target": "T3, human 5-HT7 receptor (Homo sapiens, UniProt P34969)", "T3 construct": "expressed in transfected cells; host or cells: HEK293", "T3 sequence (P34969 whole entry)": "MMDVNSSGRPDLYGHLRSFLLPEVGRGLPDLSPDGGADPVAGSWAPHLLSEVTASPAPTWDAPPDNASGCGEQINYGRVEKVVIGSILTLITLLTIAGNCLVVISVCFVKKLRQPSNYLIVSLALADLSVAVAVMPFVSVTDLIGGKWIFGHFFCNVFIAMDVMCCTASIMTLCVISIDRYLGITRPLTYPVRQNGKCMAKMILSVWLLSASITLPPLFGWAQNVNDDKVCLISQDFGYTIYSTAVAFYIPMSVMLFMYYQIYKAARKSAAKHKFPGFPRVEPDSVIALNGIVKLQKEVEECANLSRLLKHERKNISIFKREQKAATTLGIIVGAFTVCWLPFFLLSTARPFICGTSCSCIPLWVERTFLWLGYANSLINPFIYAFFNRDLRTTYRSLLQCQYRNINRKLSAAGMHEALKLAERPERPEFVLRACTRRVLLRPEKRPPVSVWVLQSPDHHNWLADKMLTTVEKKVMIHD", "assay": "Competition radioligand binding at human 5-HT7 receptor ([3H]-SB269970)", "conditions": "mean ± SEM of 2 independent experiments, read-out: hu5-HT7 % inh. at 10 µM", "description": "as §1, §2"}, "[5]": {"conditions": "25 mg/kg i.p. 60 min before the test"}, "[6]": {"conditions": "50 mg/kg i.p. 60 min before the test"}, "[7]": {"conditions": "75 mg/kg i.p. 60 min before the test"}}}
{"compound": "O=C(CCN1C(=O)CSc2ccccc21)Nc1ccc(Cl)cc1", "note": "[Compound 17, N-(4-Chlorophenyl)-3-(3-oxo-2,3-dihydro-4H-benzo[b][1,4]thiazin-4-yl)propanamide]", "values": [{"measurement": "inhibition at 10 µM", "setting": "[1]", "value": "6 ± 3", "unit": "%"}, {"measurement": "effect on immobility time", "setting": "mice [2]; 25 mg/kg i.p., p > 0.05", "value": "no statistically significant effect"}, {"measurement": "effect on total time of immobility vs control group", "setting": "mice [2]; 50 mg/kg i.p., p < 0.001", "value": "significantly reduced"}, {"measurement": "effect on total time of immobility vs control group", "setting": "mice [2]; 75 mg/kg i.p., p < 0.01", "value": "significantly reduced"}, {"measurement": "effect on amphetamine-induced hyperactivity", "setting": "mice [3]; 25 mg/kg i.p.", "value": "inactive"}, {"measurement": "effect on amphetamine-induced hyperactivity after 10 min", "setting": "mice [3]; 50 mg/kg i.p.", "value": "decreased"}, {"measurement": "effect on amphetamine-induced hyperactivity after 30 min", "setting": "mice [3]; 50 mg/kg i.p.", "value": "decreased"}, {"measurement": "effect on amphetamine-induced hyperactivity after 10 min", "setting": "mice [3]; 75 mg/kg i.p.", "value": "decreased"}, {"measurement": "effect on amphetamine-induced hyperactivity after 30 min", "setting": "mice [3]; 75 mg/kg i.p.", "value": "decreased"}, {"measurement": "inhibition at 10 µM", "setting": "human 5-HT2A receptor", "value": "28 ± 1", "unit": "%"}, {"measurement": "Distance Traveled after 10 min", "setting": "mice [4]; [5]", "value": "910.1 ± 139.3", "unit": "cm"}, {"measurement": "Distance Traveled after 30 min", "setting": "mice [4]; [5]", "value": "2003 ± 355.7", "unit": "cm"}, {"measurement": "Distance Traveled after 10 min", "setting": "mice [4]; [6]", "value": "855.9 ± 195.1", "unit": "cm"}, {"measurement": "Distance Traveled after 30 min", "setting": "mice [4]; [6]", "value": "2345 ± 616.0", "unit": "cm"}, {"measurement": "Distance Traveled after 10 min", "setting": "mice [4]; [7]", "value": "1200 ± 216.0", "unit": "cm"}, {"measurement": "Distance Traveled after 30 min", "setting": "mice [4]; [7]", "value": "2983 ± 595.8", "unit": "cm"}, {"measurement": "effect on locomotor activity versus the control group", "setting": "mice [4]; 25, 50 and 75 mg/kg i.p., after 10 min and after 30 min", "value": "no statistically significant effects"}, {"measurement": "inhibition at 10 µM", "setting": "human 5-HT7 receptor", "value": "5 ± 11", "unit": "%"}]}
